Experimental data as given in ChEMBL document CHEMBL1121775, “Synthesis and antimalarial effects of N2-aryl-N4-[(dialkylamino)alkyl]- and N4-aryl-N2-[(dialkylamino)alkyl]-2,4-quinazolinediamines” (J Med Chem, 1981).
Where “and” joins values, the source holds several entries; their conditions need not be identical. Equal values may be shown once.

How the values were obtained:
Assay type in all cases: functional
Plasmodium berghei [1] = assay: Antimalarial effect against trophozoite-induced Plasmodium berghei in mice (Mus musculus) after 20 mg/kg subcutaneous dose
Plasmodium berghei [2] = assay: Antimalarial effect against trophozoite-induced Plasmodium berghei in mice (Mus musculus) at 320 mg/kg subcutaneous dose
Plasmodium berghei [3] = assay: Antimalarial activity against trophozoite-induced Plasmodium berghei in mice (Mus musculus) at 160 mg/kg subcutaneous dose; settings: 160 mg/kg
Mus musculus [4] = assay: Antimalarial effect against trophozoite-induced Plasmodium berghei in mice (Mus musculus) at dosage of 160 mg/kg after subcutaneous administration; No. of mice (Mus musculus) surviving after 60 days 4
Plasmodium berghei [5] = assay: Antimalarial effect against trophozoite-induced Plasmodium berghei in mice (Mus musculus) at 80 mg/kg subcutaneous dose
Mus musculus [6] = assay: Antimalarial effect against trophozoite-induced Plasmodium berghei in mice (Mus musculus) at dosage of 80 mg/kg after subcutaneous administration; No. of mice (Mus musculus) surviving after 60 days 4
Mus musculus [7] = assay: Number of mice cured at a dose 320 mg/kg sc; settings: route subcutaneous
Mus musculus [8] = assay: Number of mice cured at a subcutaneous dose of 160 mg/kg.
Mus musculus [9] = assay: Number of mice cured at a dose of 640 mg/kg sc; settings: route subcutaneous
Mus musculus [10] = assay: Number of mice cured at a subcutaneous dose of 320 mg/kg.
Plasmodium berghei [11] = assay: Antimalarial effect against trophozoite-induced Plasmodium berghei in mice (Mus musculus) after 40 mg/kg subcutaneous dose
Plasmodium berghei [12] = assay: Antimalarial effect against trophozoite-induced Plasmodium berghei in mice (Mus musculus) at 160 mg/kg subcutaneous dose
Plasmodium berghei [13] = assay: Antimalarial activity against trophozoite-induced Plasmodium berghei in mice (Mus musculus)
[14] = The ratio of SD90 of the quinine hydrochloride, to the SD90 of the test substance for the Dose of >69 mg/kg
Mus musculus [15] = assay: Number of mice cured at a dose of 160 mg/kg sc; settings: route subcutaneous
Mus musculus [16] = assay: Number of mice cured at a dose of 320 mg/kg sc; settings: route subcutaneous
Mus musculus [17] = assay: Antimalarial effect against trophozoite-induced Plasmodium berghei in mice (Mus musculus) at dosage of 80 mg/kg after subcutaneous administration
Mus musculus [18] = assay: Number of mice cured at a dose of 80 mg/kg sc; settings: route subcutaneous
[19] = The ratio of SD90 of the quinine hydrochloride, to the SD90 of the test substance for the Dose of 7.8 mg/kg
Plasmodium berghei [20] = assay: (§1) Antimalarial effect against trophozoite-induced Plasmodium berghei in mice (Mus musculus) at 640 mg/kg subcutaneous dose; settings: 640 mg/kg
[21] = The ratio of SD90 of the quinine hydrochloride, to the SD90 of the test substance for the Dose of 37 mg/kg/day
Mus musculus [22] = assay: Number of mice cured at a subcutaneous dose of 640 mg/kg.
[23] = The ratio of SD90 of the quinine hydrochloride, to the SD90 of the test substance for the Dose of 8.4 mg/kg
[24] = The ratio of SD90 of the quinine hydrochloride, to the SD90 of the test substance for the Dose of 9.3 mg/kg
[25] = The ratio of SD90 of the quinine hydrochloride, to the SD90 of the test substance for the Dose of 91 mg/kg
[26] = The ratio of SD90 of the quinine hydrochloride, to the SD90 of the test substance for the Dose of 24 mg/kg
Plasmodium berghei [27] = assay: as §1; settings: 640 mg/kg; remark: listed apart in the source
[28] = The ratio of SD90 of the quinine hydrochloride, to the SD90 of the test substance for the Dose of 38 mg/kg
[29] = The ratio of SD90 of the quinine hydrochloride, to the SD90 of the test substance for the Dose of 9.8 mg/kg

Row | SMILES | MST (Plasmodium berghei [1]; 20 mg/kg) | MST (Plasmodium berghei [2]; 320 mg/kg) [days] | MST (Plasmodium berghei [3]) | No. of survivals (Mus musculus [9]) | MST (Plasmodium berghei [1]) [days] | MST (Plasmodium berghei [12]) [days] | SD90 (Plasmodium berghei [13]) [mg/kg/day] | MST (Plasmodium berghei [5]) [days] | MST (Plasmodium berghei [11]; 40 mg/kg) | MST (Plasmodium berghei [2]) [days] | MST (Plasmodium berghei [12]; 160 mg/kg) | No. of cured (Mus musculus [22]) | also measured
1 | CN(C)C1CCC(Nc2nc(Nc3cc(Cl)cc(Cl)c3)nc3ccccc23)CC1 (stereo in doubt; 26) | 3.6 days and 1.7 days | 27.8 | 19.1 days and 24.9 days | 5 |  |  |  |  |  |  |  |  | MST (Mus musculus [4]): 27.9 days; MST (Plasmodium berghei [5]; 80 mg/kg): 11.6 days and 9 days; MST (Mus musculus [6]): 23.9 days; No. of survivals (Mus musculus [7]): 4; No. of survivals (Mus musculus [8]; 160 mg/kg): 2 and 4; No. of survivals (Mus musculus [10]): 5
2 | CCNCc1cc(Nc2nc(NC3CCC(N(C)C)CC3)c3ccccc3n2)ccc1OC (centres undefined) |  |  |  |  | 0.3 | 3.7 | >69 | 2.7 |  |  |  |  | MST (Plasmodium berghei [11]): 0.5 days; Ratio [14]: <1.1
3 | CN(C)C1CCC(Nc2nc(Nc3ccc(Cl)c(Cl)c3)nc3ccccc23)CC1 (stereo in doubt; 22) | 0.3 days | 25.9 | 22.9 days |  |  | 25.9 | 7.8 |  | 4.5 days and 4.1 days |  |  |  | No. of cured (Mus musculus [15]): 4; No. of cured (Mus musculus [16]): 4; MST (Mus musculus [17]): 11.4 days; No. of cured (Mus musculus [18]): 3; Ratio [19]: 9.6
4 | FC(F)(F)c1ccc(Nc2nc(NCCN3CCCC3)c3ccccc3n2)cc1 |  |  |  |  | 0.2 |  | 37 | 2.4 | 0.4 days and 0.8 days | 10.2 | 4.8 days and 3.4 days |  | MST (Plasmodium berghei [20]): 16.2 days and 13.2 days; Ratio [21]: 2
5 | CCN1CCC(CNc2nc(Nc3ccc(Cl)c(Cl)c3)nc3ccccc23)CC1 |  |  | 23.9 days and 27.9 days |  | 0.7 |  | 8.4 | 9.1 | 7.5 days and 7.3 days |  |  | 5 | No. of cured (Mus musculus [16]; 320 mg/kg): 5 and 4; Ratio [23]: 8.9
6 | CN(C)C1CCC(Nc2nc(Nc3cc(Cl)cc(Cl)c3)nc3ccccc23)CC1 (stereo in doubt; 25) | 5.1 days | 24.9 |  |  |  |  | 9.3 |  | 9.7 days and 9.3 days |  | 17.5 days and 16.9 days | 5 | No. of cured (Mus musculus [16]): 4; MST (Plasmodium berghei [5]; 80 mg/kg): 10.9 days; Ratio [24]: 8
7 | CCN(CC)CCNc1nc(Nc2ccc(C(F)(F)F)cc2)nc2ccccc12 |  |  |  | 4 | 0.3 | 8.9 | 91 | 7.3 | 1.7 days and 1.1 days |  |  |  | No. of survivals (Mus musculus [8]): 1; No. of survivals (Mus musculus [10]): 4; Ratio [25]: 0.8
8 | CCN(CC)CCNc1nc(Nc2ccc(Cl)c(Cl)c2)nc2ccccc12 |  |  |  | 5 |  | 7 | 24 |  |  |  |  |  | MST (Plasmodium berghei [11]): 1 days; Ratio [26]: 3.1
9 | CCN1CCCC(Nc2nc(Nc3ccc(Cl)cc3)nc3ccccc23)C1 (centres undefined) |  |  |  |  | 0.2 |  | 38 | 3 | 0.4 days and 0.6 days | 20 | 10.6 days and 11.4 days | 3 | MST (Plasmodium berghei [27]): 28.3 days and 28.8 days; Ratio [28]: 2
10 | CN1CCCC1CCNc1nc(Nc2ccc(Cl)cc2)nc2ccccc12 (centres undefined) |  |  |  |  | 0.8 |  | 9.8 | 4.4 | 1.1 days and 0.8 days | 14.4 | 10.7 days and 10.2 days |  | MST (Plasmodium berghei [27]): 12.2 days and 22.3 days; No. of cured (Mus musculus [22]; 640 mg/kg): 2 and 3; Ratio [29]: 7.6
